# Test results from patent US10226493B2, “Coriolus versicolor extracts, methods of preparation and uses thereof” (priority 2010, dated 2019).
# Test system: herpes simplex virus (HSV)
# Assay: HSV infection in mice, disease severity by hind-limb paralysis score
# Format: in vivo
# Details: male BALB/c mice, ip once a day; MPUB-EtOH 250 mg/kg, acyclovir 10 mg/kg; versus DMSO-treated controls; FIG. 10
# Procedure: To investigate the antiviral effects of C. versicolor extract in vivo, 3-week-old male BALB/c mice (15 mice per group) were administrated intraperitoneally (ip) with dimethyl sulfoxide (DMSO) (solvent for MPUB-EtOH) or MPUB-EtOH (250 mg/kg) once a day at 24 hr intervals for […].
# Briefly, the mice were infected with inoculation of HSV ip at 1×10^5 TCID50/ml at day 0. DMSO, MPUB-EtOH or acyclovir (10 mg/kg) were administrated ip once a day at 24 hr intervals for 5 days starting 1 hr after infection. The mice were inspected daily and the disease severity was measured by hind-limb(s) paralysis based on the following scoring system: 0, no paralysis; 1, obvious difficulty in movement of hind limbs; 2, one hind limb incomplete paralysis; 3, one hind limb complete paralysis; 4, both hind limbs incomplete paralysis; 5, both hind limbs complete paralysis.
smiles,measurement,value
Nc1nc2c(ncn2COCCO)c(=O)[nH]1 [acyclovir],severity of HSV infection (hind-limb paralysis score 0-5),comparable
